Data reported in the METLIN SMRT retention time set (Domingo-Almenara et al. 2019).

Assay: gradient 5% acetonitrile 3 min, to 50% in 2 min, to 85% in 15 min, held 3 min, 100 µL/min
Conditions: column: Zorbax Extend-C18 2.1 x 50 mm; eluents: water / acetonitrile, 0.1% formic acid
Outline: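 Pure standards were run in mixtures of ~100 molecules by HPLC coupled to a quadrupole time-of-flight mass spectrometer. The column was a Zorbax Extend-C18 (2.1 × 50 mm, 1.8 μm) at 100 μL/min, with water and acetonitrile each containing 0.1% formic acid, in positive and negative ionization mode. Dead and dwell volumes were 40 μL and 900 μL. Retention time was taken from computationally picked adduct peaks, each manually inspected, with data collected over 3 months.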

| Structure (SMILES) | RP-LC retention time [s] |
| --- | --- |
| C=CCn1c(-c2ccc(OC)cc2)nc2nc3ccccc3nc21 | 813 |
| CCC(=O)N(C1CCOCC1)C1CCN(S(=O)(=O)c2ccc(F)c(C)c2)CC1 | 836 |
| Cc1nc2cccnc2n1CC1CCCN(S(=O)(=O)c2cccc(Br)c2)C1 (stereo not given) | 735 |
| Cc1ccc(CNC(=O)C2(C)CN(S(C)(=O)=O)CC(=O)N2c2cc(C)ccc2C)cc1 (stereo not given) | 898 |
| CCn1cc(S(=O)(=O)Nc2ccc(OC)c(Cl)c2)c2cccnc21 | 832 |
| CC(C)c1cc(=O)n(CC(=O)Nc2cccc(-c3cn4c(n3)SCC4)c2)cn1 | 568 |
| CN1C(=O)CO[C@@H](C(=O)O)[C@@H]1c1ccccc1 | 621 |
| CCn1c(=O)c(N2CCC(NC(=O)NCCCOC)CC2)nc2ccccc21 | 707 |
| COc1ccc2nc(CN3CCN(S(=O)(=O)N(C)C)CC3)[nH]c2c1 | 556 |
| CC(C)n1c(N2CCN(C(=O)COc3ccc(Cl)cc3)CC2)cc(=O)n(C(C)C)c1=O | 928 |
| O=C(C1CCN(S(=O)(=O)Cc2ccc(Cl)cc2)CC1)N1CCOCC1 | 725 |
| CCN1CCC(O)(/C=C/c2ccc(C)cc2)C(C(=O)/C=C/c2ccc(C)cc2)C1 (stereo not given) | 767 |
| Cc1ccc(-c2nc3cnccn3c2NCCC(=O)NC2CCCC2)cc1 | 696 |
| CCN1CCCN(C(=O)C2(c3ccc(OC)cc3)CC2)CC12CCOCC2 | 620 |
| Cc1cc(C)n(-c2nc(C)c(C(=O)Nc3cccc(C(F)(F)F)c3)s2)n1 | 1260 |
| Cc1sc(-c2nnc(C(C)C)o2)cc1NS(C)(=O)=O | 808 |
| Cc1cc2nc(Nc3nc(SCc4ccc(Cl)cc4)cc(=O)[nH]3)nc(C)c2cc1C | 1110 |
| Cc1sc2ccn(C)c(=O)c2c1C(=O)N1CCN(c2cccc(Cl)c2)CC1 | 844 |
| Cc1ccc(CNC(=O)CCc2c(C)nn(-c3cc(N4CCOCC4)ncn3)c2C)o1 | 700 |
| Fc1cccc(Cn2cc(-c3noc(C4CCCC4)n3)nn2)c1 | 1010 |
| O=C(Nc1ccccc1F)C1CCN(S(=O)(=O)c2cc(-c3noc(C4CCC4)n3)cs2)CC1 | 958 |

| Structure (SMILES) | RP-LC retention time [s] |
| --- | --- |
| O=C(NCc1ccc(-c2noc(-c3cc(F)ccc3F)n2)s1)C1CC1 | 932 |
| CNc1nc(NC(C)C)nc(-n2cnc(SC)n2)n1 | 722 |
| Cc1ccccc1S(=O)(=O)N1CCC2(CC1)NCCN=C2NCc1cc(F)cc(F)c1 | 730 |
| Cc1ccc(Nc2nc(-c3cc(C)c(C)cc3C)cs2)nc1 | 1010 |
| COC(=O)c1ccc(-c2nc3cnccn3c2NC2CCCCC2)cc1 | 973 |
| CC1=NS(=O)(=O)N(Cc2ccccc2)C=C1C(=O)OCc1noc(C2CCCCC2)n1 | 1110 |
| O=C(CSC1CCc2ccccc2NC1=O)Nc1ccc(F)c(Cl)c1 (stereo not given) | 873 |
| Cc1ccc(C)c(S(=O)(=O)Nc2cnc(N3CCNCC3)c(C(=O)NC3CCCC3)c2)c1 | 621 |
| Cc1cc(C)n(CCC(=O)N2C[C@H]3C[C@H](C2)[C@H]2CCCC(=O)N2C3)n1 | 600 |
| Cc1cn2c(S(=O)(=O)N3CCCCC3)c(C(C)C)nc2s1 | 1020 |
| O=C(NC1CCCCCC1)C1CC(=O)N(CCc2c[nH]c3ccc(F)cc23)C1 (stereo not given) | 812 |
| Cc1cc(C)cc(Nc2c(C(=O)N3CCOCC3)cnc3nc(C)ccc23)c1 | 604 |
| CCOC(=O)c1[nH]c(C)c(CCC(=O)N2CCC(C(=O)NCCCN3CCOCC3)CC2)c1C | 580 |
| O=C(Cn1cnc2c(nc3n2CCCCC3)c1=O)N1CCN(c2ccc(Cl)cc2)CC1 | 750 |
| COc1cccc(S(=O)(=O)N2CCC(n3cnnc3C3CC3)CC2)c1 | 695 |
| COc1ccc(-c2cc(N3CCN(C(=O)COc4ccc(C)cc4OC)CC3)ncn2)cc1 | 608 |
| Cc1ccc(Nc2c(-c3cccc(Br)c3)nc3ccc(Cl)cn23)cc1 | 1130 |
| Cc1ccc2c(c1)sc1nncn12 | 749 |
| Cc1oc(-c2[nH]ncc2C(=O)N(C)C)cc1S(=O)(=O)Nc1ccc(F)cc1Cl | 696 |
| O=C(Cc1ccc(Cl)cc1)NC1CCN(c2nnc3ccc(C(F)(F)F)cn23)CC1 | 799 |
| CC(C(=O)NCCCN1CCOCC1)n1c(=O)c(C(F)(F)F)nc2ccccc21 (stereo not given) | 644 |

| Structure (SMILES) | RP-LC retention time [s] |
| --- | --- |
| Cc1cc(C(F)F)n2nc(C(=O)Nc3ccc(F)cc3C)nc2n1 | 811 |
| COc1ccc(OC)c(S(=O)(=O)Cc2nc(-c3ccc(C)cc3)no2)c1 | 1000 |
| CCn1ncc(Cl)c1C(=O)N1CCCC1c1ccc(F)cc1 (stereo not given) | 912 |
| O=C(N[C@H]1C[C@@H]2C[C@H]1CN2C(=O)NCCc1ccccc1)c1cccs1 | 716 |
| COCCCN(CC(=O)N1CCNCC1)C(=O)c1ccc(F)c(Cl)c1 | 596 |
| COc1ccc(-c2nc(-c3ccc4oc(C)nc4c3)no2)cn1 | 1060 |
| CC1CCN(C(=O)CN2C(=O)C3CCCCN3c3ccc(C(=O)N(C)C)cc32)CC1 (stereo not given) | 752 |
| O=C(CN1C(=O)C(C(=O)N2CCCCCC2)Sc2ccccc21)N1CCN(c2ncccn2)CC1 (stereo not given) | 784 |
| CCn1cnc(S(=O)(=O)N2CCC(C(=O)NC3CCCCCCC3)CC2)c1 | 769 |
| CCOC(=O)CC(=O)CSc1nc(-c2ccccc2)ns1 | 993 |
| Cc1cccc2nnc(N3CCCC(C(=O)Nc4ccc(N5CCOCC5)cc4)C3)n12 (stereo not given) | 625 |
| CCn1c(=O)c(=O)n(CC(=O)NC2CCCCCC2)c2cccnc21 | 760 |
| COc1cccc(NC(=O)C2CCCN(c3nc4ccccc4nc3OC)C2)c1 (stereo not given) | 1100 |
| CC1CCN(C(=O)c2ccc3c(c2)N(CC(=O)NC(C)C)C(=O)CO3)CC1 | 684 |
| CCC1(C(=O)NCc2ccc(Cl)cc2)CCCCC(=O)N1 (stereo not given) | 738 |
| CCOc1ccc(-c2noc(CN3C(=O)COc4ccccc43)n2)cc1OC | 968 |
| Cc1cccc(CNC(=O)c2cn3ccc(C)cc3n2)c1 | 675 |
| CC(CCc1ccccc1)NC(=O)Cn1nc2n(c1=O)CCCC2 (stereo not given) | 716 |
| Cc1cc(Cl)ccc1OCc1nc(-c2ccc3c(c2)ncn3CCC(=O)N2CCCC2)no1 | 889 |

Now from value to compound:

| RP-LC retention time [s] | Structure (SMILES) |
| --- | --- |
| 1070 | COc1ccccc1-c1csc(-c2nnn(-c3ccccc3)c2N)n1 |
| 786 | CC1CCCN(C(=O)C2CC(=O)N(c3ccccc3)C2)C1 (stereo not given) |
| 788 | COC(=O)c1cccc(N2C=C(C(=O)N3CCCC3)S(=O)(=O)c3ccc(F)cc32)c1 |
| 820 | COC(=O)c1c(NCc2ccccc2OC)c2cccc(Cl)c2[nH]c1=O |
| 620 | Cc1cc(=O)n(CC(=O)Nc2ccccc2C)c(N2CCCC2)n1 |
| 748 | O=C(Cn1cnc2nc3c(cc2c1=O)CCCC3)N1CCN(c2ccccc2)CC1 |
| 633 | O=C(Cn1nc2n(c1=O)CCCC2)Nc1ccccc1 |
| 930 | O=C(CSC1CCc2ccccc2NC1=O)Nc1ccc(Cl)cc1Cl (stereo not given) |
| 919 | Cc1ccc2c(c1)cc(S(=O)(=O)c1ccccc1)c(=O)n2CC(=O)N1CCCCC1 |
| 914 | COc1ccc(-c2nnc(COc3cccc(NC(=O)c4cncc(Br)c4)c3)o2)cc1 |
| 980 | O=C(Cn1cccc(-c2nc(-c3ccc(Br)cc3)no2)c1=O)Nc1ccc(F)cc1 |
| 588 | Cc1nnc(NC(=O)CCn2cnc3ccccc3c2=O)s1 |
| 1260 | CCOc1ccc(N(C)S(=O)(=O)c2ccsc2C(=O)NC(C)CCc2ccccc2)cc1 (stereo not given) |
| 592 | O=C(NCCCN1CCOCC1)c1cc(-c2ccccn2)nc2ccccc12 |
| 581 | O=C(Nc1nc2ccccc2n1CCN1CCOCC1)c1cccc([N+](=O)[O-])c1 |
| 775 | CCOc1ccccc1NC(=O)Cn1ncc2c(c1=O)N(C1CC1)C(=O)CS2 |
| 524 | CCOC(=O)c1ccccc1NC(=O)CSc1ccc(-c2ccco2)nn1 |
| 623 | O=C(COc1ccc(-c2cnc3ccccc3n2)cc1)NCCN1CCCC1 |
| 679 | O=C(Cc1noc2ccccc12)NCCOc1ccc2nnc(-c3ccc(F)cc3)n2n1 |
| 661 | CC(C)CC(=O)NCCc1nc2cccnc2n1-c1ccccc1 |
| 810 | Cc1cccc(NC(=O)c2ccc3nn(CC(=O)Nc4ccc(C)c(F)c4)c(=O)n3c2)c1 |
| 787 | Cc1nc2cc(N3CC(C(=O)Nc4ccc(Cl)cc4F)CC3=O)ccc2o1 (stereo not given) |
| 844 | COc1ccc(N2CC(c3nc(-c4cccc(-c5ccnn5C)c4)no3)CC2=O)cc1 (stereo not given) |
| 597 | CCN(CCNS(=O)(=O)c1ccc2[nH]c(=O)ccc2c1)Cc1ccccc1 |
| 693 | CCOC(=O)c1ccc(NC(=O)c2ccc(=O)n(C)n2)cc1 |
| 1070 | CCOc1ccc(-c2noc(Cn3nc(-c4ccccc4)ccc3=O)n2)cc1 |
| 950 | COc1ccccc1-c1noc(Cn2c(=O)n(-c3ccc(Cl)cc3)c(=O)c3sccc32)n1 |
| 788 | Cn1c(=O)c2cc(C(=O)Nc3ccccc3C(N)=O)cnc2n(-c2ccccc2)c1=O |
| 789 | O=C(c1ccccc1Cl)N1CCN(c2cc(-c3cccs3)[nH]n2)CC1 |
